# In US20100267561A1, “HERBICIDAL PYRIDAZINONE DERIVATIVES” (priority 2007, published 2010):
# Experiments:
# Format in all cases: in vivo
# [1] = tested on: windgrass (Apera spica-venti); assay: Test B postemergence plant response; settings: for Windgrass plant response rating: 8 g ai/ha, postemergence, 0-100 scale; for Plant response rating, Windgrass: Postemergence
# Method in brief: (§1)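 Visual injury score from 0 (none) to 100 (complete control) versus controls, taken 13 to 15 days after treatment in the greenhouse; chemicals applied postemergence, as formulated, to plants of 1- to 4-leaf stage (2 to 18 cm tall); dash denotes no test result.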
# [2] = tested on: winter barley (Hordeum vulgare); assay: Test B postemergence plant response; settings: for Barley plant response rating: 8 g ai/ha, postemergence, 0-100 scale; for Plant response rating, Barley: Postemergence, scale 0 to 100, 0 no effect, 100 complete control
# Method in brief: as §1
# [3] = tested on: chickweed (Stellaria media); assay: Test B postemergence plant response; settings: for Chickweed plant response rating: 8 g ai/ha, postemergence, 0-100 scale; for Plant response rating, Chickweed: Postemergence
# Method in brief: as §1
# [4] = tested on: canarygrass (Phalaris minor); assay: Test B postemergence plant response; settings: for Canarygrass plant response rating: 8 g ai/ha, postemergence, 0-100 scale; for Plant response rating, Canarygrass: Postemergence
# Method in brief: as §1
# [5] = tested on: pigweed (Amaranthus retroflexus); assay: Test A pre-/postemergence plant response
# Method in brief: (§2)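 Ratings run 0–100 (100 = complete control), assigned visually against untreated controls roughly 10 days after treatment in a greenhouse. Compounds, formulated in non-phytotoxic solvent containing surfactant, were applied as a soil-directed preemergence spray and concurrently postemergence to one- to two-leaf plants 2–10 cm tall.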
# corn (Zea mays) = assay: Test A pre-/postemergence plant response
# Method in brief: as §2
# [6] = tested on: wheat (Triticum aestivum); assay: Test A pre-/postemergence plant response
# Method in brief: as §2
# [7] = tested on: morningglory (Ipomoea coccinea); assay: Test A pre-/postemergence plant response
# Method in brief: as §2
# [8] = tested on: barnyardgrass (Echinochloa crus-galli); assay: Test A pre-/postemergence plant response
# Method in brief: as §2
# [9] = tested on: pigweed (Amaranthus retroflexus); assay: Test B pre-/postemergence plant response; settings: for Pigweed plant response rating: 8 g ai/ha
# Method in brief: (§3)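 Visual scoring from 0 (no effect) to 100 (complete control) against untreated controls was done 13 to 15 days after greenhouse treatment. Chemicals were formulated in a surfactant-containing non-phytotoxic solvent and applied to soil preemergence or to 1- to 4-leaf (2-18 cm) plants postemergence.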
# [10] = tested on: johnsongrass (Sorghum halepense); assay: Test B pre-/postemergence plant response; settings: for Johnsongrass plant response rating: 8 g ai/ha
# Method in brief: as §3
# [11] = tested on: catchweed bedstraw (Galium aparine); assay: Test B pre-/postemergence plant response; settings: Preemergence; for Galium plant response rating: 8 g ai/ha
# Method in brief: as §3
# [12] = 62 g ai/ha, scale 0 to 100, 0 no effect, 100 complete control
# [13] = 31 g ai/ha, scale 0 to 100, 0 no effect, 100 complete control
# [14] = Postemergence, 31 g ai/ha, 0 to 100 scale, 0 no effect, 100 complete control
# [15] = Postemergence, 125 g ai/ha, 0 to 100 scale, 0 no effect, 100 complete control
# [16] = Preemergence, 31 g ai/ha, 0 to 100 scale, 0 is no effect, 100 is complete control
# [17] = Preemergence, 125 g ai/ha, 0 to 100 scale (0 no effect, 100 complete control)
# [18] = Postemergence, 16 g ai/ha, scale 0 to 100
# [19] = Postemergence, 31 g ai/ha, scale 0 to 100, 0 no effect, 100 complete control
# [20] = Postemergence, 62 g ai/ha, scale 0 to 100, 0 no effect, 100 complete control
# [21] = Preemergence, 16 g ai/ha, scale 0 to 100 (0 no effect, 100 complete control)
# [22] = Preemergence, 31 g ai/ha, 0 to 100 scale, 0 no effect, 100 complete control
# [23] = Preemergence, 62 g ai/ha, scale 0 to 100
# [24] = 16 g ai/ha, scale 0 to 100 (0 no effect, 100 complete control)
# [25] = 31 g ai/ha, 0 to 100 scale, 0 no effect, 100 complete control
# [26] = Preemergence, 31 g ai/ha, scale 0 to 100 (0 no effect, 100 complete control)
structure (smiles),measurement,setting,value
Cc1cc(-c2ccc(Cl)cc2)nn1-c1c(OC(=O)c2ccccc2Cl)cnn(C)c1=O [Compound 38],Windgrass plant response rating,[1],0
same,"Plant response rating, Windgrass","[1]; 16 g ai/ha, scale 0 to 100",0
same,"Plant response rating, Windgrass",[1]; [12],80
same,Barley plant response rating,[2],0
same,"Plant response rating, Barley",[2]; 16 g ai/ha,0
same,"Plant response rating, Barley",[2]; 31 g ai/ha,10
same,"Plant response rating, Barley",[2]; 62 g ai/ha,10
same,Chickweed plant response rating,[3],0
same,"Plant response rating, Chickweed","[3]; 16 g ai/ha, scale 0 to 100",0
same,"Plant response rating, Chickweed",[3]; [13],0
same,"Plant response rating, Chickweed",[3]; [12],0
same,Canarygrass plant response rating,[4],0
same,"Plant response rating, Canarygrass","[4]; 16 g ai/ha, scale 0 to 100",0
same,"Plant response rating, Canarygrass",[4]; [13],10
same,"Plant response rating, Canarygrass",[4]; [12],30
same,"Plant response rating, Pigweed",[5]; [14],0
same,"Plant response rating, Pigweed",[5]; [15],0
same,"Plant response rating, Pigweed",[5]; [16],0
same,"Plant response rating, Pigweed",[5]; [17],0
same,"Plant response rating, Corn",corn (Zea mays); [14],20
same,"Plant response rating, Corn",corn (Zea mays); [15],90
same,"Plant response rating, Corn",corn (Zea mays); [16],0
same,"Plant response rating, Corn",corn (Zea mays); [17],70
same,"Plant response rating, Wheat",[6]; [14],0
same,"Plant response rating, Wheat",[6]; [15],60
same,"Plant response rating, Wheat",[6]; [16],20
same,"Plant response rating, Wheat",[6]; [17],60
same,"Plant response rating, Morningglory",[7]; [14],0
same,"Plant response rating, Morningglory",[7]; [15],0
same,"Plant response rating, Morningglory",[7]; [16],0
same,"Plant response rating, Morningglory",[7]; [17],0
same,"Plant response rating, Barnyardgrass",[8]; [14],40
same,"Plant response rating, Barnyardgrass",[8]; [15],100
same,"Plant response rating, Barnyardgrass",[8]; [16],90
same,"Plant response rating, Barnyardgrass",[8]; [17],100
same,Pigweed plant response rating,"[9]; postemergence, 0-100 scale",0
same,"Plant response rating, Pigweed",[9]; [18],0
same,"Plant response rating, Pigweed",[9]; [19],0
same,"Plant response rating, Pigweed",[9]; [20],0
same,"Plant response rating, Pigweed",[9]; [21],0
same,"Plant response rating, Pigweed",[9]; [22],0
same,"Plant response rating, Pigweed",[9]; [23],0
same,Pigweed plant response rating,"[9]; Preemergence, scale 0 to 100",0
same,Johnsongrass plant response rating,"[10]; postemergence, 0-100 scale",60
same,"Plant response rating, Johnsongrass",[10]; [18],65
same,"Plant response rating, Johnsongrass",[10]; [19],90
same,"Plant response rating, Johnsongrass",[10]; [20],100
same,"Plant response rating, Johnsongrass",[10]; [22],70
same,"Plant response rating, Johnsongrass",[10]; [23],80
same,Johnsongrass plant response rating,"[10]; Preemergence, scale 0 to 100",0
same,"Plant response rating, Galium",[11]; [24],0
same,"Plant response rating, Galium",[11]; [25],0
same,"Plant response rating, Galium","[11]; 62 g ai/ha, scale 0 to 100",0
same,Galium plant response rating,[11]; scale 0 to 100,0
CCCc1cc(-c2ccc(Cl)cc2)nn1-c1c(O)cnn(C)c1=O [Compound 43],Windgrass plant response rating,[1],50
same,"Plant response rating, Windgrass","[1]; 16 g ai/ha, scale 0 to 100",70
same,"Plant response rating, Windgrass",[1]; [12],100
same,Barley plant response rating,[2],20
same,"Plant response rating, Barley",[2]; 16 g ai/ha,50
same,"Plant response rating, Barley",[2]; 62 g ai/ha,50
same,Chickweed plant response rating,[3],0
same,"Plant response rating, Chickweed","[3]; 16 g ai/ha, scale 0 to 100",0
same,"Plant response rating, Chickweed",[3]; [13],0
same,"Plant response rating, Chickweed",[3]; [12],0
same,Canarygrass plant response rating,[4],30
same,"Plant response rating, Canarygrass","[4]; 16 g ai/ha, scale 0 to 100",50
same,"Plant response rating, Canarygrass",[4]; [13],50
same,"Plant response rating, Canarygrass",[4]; [12],95
same,"Plant response rating, Pigweed",[5]; [14],0
same,"Plant response rating, Pigweed",[5]; [15],0
same,"Plant response rating, Pigweed",[5]; [16],0
same,"Plant response rating, Pigweed",[5]; [17],0
same,"Plant response rating, Corn",corn (Zea mays); [14],50
same,"Plant response rating, Corn",corn (Zea mays); [15],80
same,"Plant response rating, Corn",corn (Zea mays); [16],0
same,"Plant response rating, Corn",corn (Zea mays); [17],90
same,"Plant response rating, Wheat",[6]; [14],40
same,"Plant response rating, Wheat",[6]; [15],80
same,"Plant response rating, Wheat",[6]; [16],20
same,"Plant response rating, Wheat",[6]; [17],70
same,"Plant response rating, Morningglory",[7]; [14],0
same,"Plant response rating, Morningglory",[7]; [15],0
same,"Plant response rating, Morningglory",[7]; [16],0
same,"Plant response rating, Morningglory",[7]; [17],0
same,"Plant response rating, Barnyardgrass",[8]; [14],90
same,"Plant response rating, Barnyardgrass",[8]; [15],100
same,"Plant response rating, Barnyardgrass",[8]; [16],100
same,"Plant response rating, Barnyardgrass",[8]; [17],100
same,Pigweed plant response rating,"[9]; postemergence, 0-100 scale",0
same,"Plant response rating, Pigweed",[9]; [18],0
same,"Plant response rating, Pigweed",[9]; [19],0
same,"Plant response rating, Pigweed",[9]; [20],0
same,"Plant response rating, Pigweed",[9]; [21],0
same,"Plant response rating, Pigweed",[9]; [26],0
same,"Plant response rating, Pigweed",[9]; [23],0
same,Pigweed plant response rating,"[9]; Preemergence, scale 0 to 100",0
same,Johnsongrass plant response rating,"[10]; postemergence, 0-100 scale",0
same,"Plant response rating, Johnsongrass",[10]; [18],0
same,"Plant response rating, Johnsongrass",[10]; [19],80
same,"Plant response rating, Johnsongrass",[10]; [20],100
same,"Plant response rating, Johnsongrass",[10]; [21],65
same,"Plant response rating, Johnsongrass",[10]; [22],80
same,"Plant response rating, Johnsongrass",[10]; [23],98
same,Johnsongrass plant response rating,"[10]; Preemergence, scale 0 to 100",20
same,"Plant response rating, Galium",[11]; [24],0
same,"Plant response rating, Galium",[11]; [25],0
same,"Plant response rating, Galium","[11]; 62 g ai/ha, scale 0 to 100",0
same,Galium plant response rating,[11]; scale 0 to 100,0
Cc1cc(-c2ccc(C(F)(F)F)c(F)c2)nn1-c1c(O)c(C(F)(F)F)nn(C)c1=O [Compound 44],Windgrass plant response rating,[1],85
same,"Plant response rating, Windgrass","[1]; 16 g ai/ha, scale 0 to 100",85
same,"Plant response rating, Windgrass",[1]; [12],100
same,Barley plant response rating,[2],15
same,"Plant response rating, Barley",[2]; 16 g ai/ha,20
same,"Plant response rating, Barley",[2]; 31 g ai/ha,20
same,"Plant response rating, Barley",[2]; 62 g ai/ha,20
same,Chickweed plant response rating,[3],0
same,"Plant response rating, Chickweed","[3]; 16 g ai/ha, scale 0 to 100",0
same,"Plant response rating, Chickweed",[3]; [13],0
same,"Plant response rating, Chickweed",[3]; [12],0
same,Canarygrass plant response rating,[4],50
same,"Plant response rating, Canarygrass","[4]; 16 g ai/ha, scale 0 to 100",90
same,"Plant response rating, Canarygrass",[4]; [13],90
same,"Plant response rating, Pigweed",[5]; [14],0
same,"Plant response rating, Pigweed",[5]; [15],0
same,"Plant response rating, Pigweed",[5]; [16],0
same,"Plant response rating, Pigweed",[5]; [17],0
same,"Plant response rating, Corn",corn (Zea mays); [14],70
same,"Plant response rating, Corn",corn (Zea mays); [15],90
same,"Plant response rating, Corn",corn (Zea mays); [16],30
same,"Plant response rating, Corn",corn (Zea mays); [17],80
same,"Plant response rating, Wheat",[6]; [14],70
same,"Plant response rating, Wheat",[6]; [15],80
same,"Plant response rating, Wheat",[6]; [16],40
same,"Plant response rating, Wheat",[6]; [17],80
same,"Plant response rating, Morningglory",[7]; [14],0
same,"Plant response rating, Morningglory",[7]; [15],0
same,"Plant response rating, Morningglory",[7]; [16],0
same,"Plant response rating, Morningglory",[7]; [17],0
same,"Plant response rating, Barnyardgrass",[8]; [14],100
same,"Plant response rating, Barnyardgrass",[8]; [15],100
same,"Plant response rating, Barnyardgrass",[8]; [16],80
same,"Plant response rating, Barnyardgrass",[8]; [17],100
same,Pigweed plant response rating,"[9]; postemergence, 0-100 scale",0
same,"Plant response rating, Pigweed",[9]; [18],0
same,"Plant response rating, Pigweed",[9]; [19],0
same,"Plant response rating, Pigweed",[9]; [20],0
same,"Plant response rating, Pigweed",[9]; [21],0
same,"Plant response rating, Pigweed",[9]; [26],0
same,"Plant response rating, Pigweed",[9]; [23],0
same,Pigweed plant response rating,"[9]; Preemergence, scale 0 to 100",0
same,Johnsongrass plant response rating,"[10]; postemergence, 0-100 scale",55
same,"Plant response rating, Johnsongrass",[10]; [18],95
same,"Plant response rating, Johnsongrass",[10]; [19],98
same,"Plant response rating, Johnsongrass",[10]; [20],100
same,"Plant response rating, Johnsongrass",[10]; [21],0
same,"Plant response rating, Johnsongrass",[10]; [22],0
same,"Plant response rating, Johnsongrass",[10]; [23],95
same,Johnsongrass plant response rating,"[10]; Preemergence, scale 0 to 100",0
same,"Plant response rating, Galium","[11]; 62 g ai/ha, scale 0 to 100",0
same,Galium plant response rating,[11]; scale 0 to 100,0
